These compounds were tested against T1, recombinant, membrane-bound mPGES-1 (Homo sapiens, UniProt O14684) (assay: Thiobarbituric acid assay (TBA-MDA assay), inhibition of mPGES-1). Settings: remaining PGH2 measured at 535 nm.
T1 sequence (O14684 1-152): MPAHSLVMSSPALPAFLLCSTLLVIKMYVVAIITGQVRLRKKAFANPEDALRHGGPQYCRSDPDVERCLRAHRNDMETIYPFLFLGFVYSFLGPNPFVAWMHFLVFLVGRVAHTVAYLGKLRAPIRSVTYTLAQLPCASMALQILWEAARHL
Assay type: biochemical
From the text: Malondialdehyde is a product of lipid peroxidation and reacts with thiobarbituric acid forming a red product that absorbs at 535 nm (W. G. Niehaus, Jr and B. Samuelsson, Eur. J. Biochem 6, 126 (1968). The extinction coefficient of the TBA-MDA conjugate is 1.56×10^5 M^−1 cm^−1 (E. D. Wills. Biochem. J. 113, 315 (1969).
The method used for detection of inhibition of mPGES-1 is based on the detection of the amount of remaining PGH2. This method was described more than 20 years ago by Basevich et al (Bioorg. Khim. 1983, 9(5), 658-665.
The assay used was a modified variant and used citric acid instead of the TCA-TBA-HCl reagent described in the original assay. In this assay recombinant, membrane-bound mPGES-1 was incubated with PGH2. The reaction was stopped by adding citric acid with a final pH of 3 and a large excess of FeCl2 (20 mM) to convert any remaining PGH2 into MDA and […]. TBA reagent was finally added (0.67%) and the samples were heated at 80° C. for 30 min. The absorbance of the conjugate was measured at 535 nm.
The product of mPGES-1 (PGE2) was not measured directly in this assay, but rather the remaining substrate (PGH2) indirectly by adding FeCl2 that converts PGH2 into […] and 12-HHT. As a positive control a known mPGES-1 inhibitor, MK-886, was used and the new inhibitors were compared with the inhibition of MK-886 (% of MK-886 inhibition).

Row | SMILES | IC50
1 | O=C(Nc1cccc2cccnc12)c1cccc(NC(=O)c2ccccc2Cl)c1 [Compound 8, 3-(2-Chloro-benzoylamino)-N-(quinolin-8-yl-)-benzamide] | 800 nM
2 | O=C(NC1CCc2ccccc21)c1cccc(NC(=O)c2ccccc2Cl)c1 (centres unmarked) [Compound 34, 3-(2-Chloro-benzoylamino)-N-indan-1-yl-benzamide] | 720 nM
3 | C[C@H](NC(=O)c1cccc(NC(=O)c2ccccc2C(F)(F)F)c1)c1cccc2ccccc12 [Compound 77, N-[3-((S)-1-Naphthalen-1-yl-ethylcarbamoyl)-phenyl]-2-trifluoromethyl-benzamide] | 290 nM
4 | C[C@H](NC(=O)c1cccc(NC(=O)c2ccccc2I)c1)c1cccc2ccccc12 [Compound 79, 2-Iodo-N-[3-((S)-1-naphthalen-1-yl-ethylcarbamoyl)-phenyl]-benzamide] | 200 nM
5 | C[C@@H](NC(=O)c1cccc(NC(=O)c2ccccc2C(F)(F)F)c1)c1cccc2ccccc12 [Compound 93, N-[3-((R)-1-Naphthalen-1-yl-ethylcarbamoyl)-phenyl]-2-trifluoromethyl-benzamide] | 120 nM
6 | C[C@@H](NC(=O)c1cccc(NC(=O)c2ccccc2I)c1)c1cccc2ccccc12 [Compound 96, 2-Iodo-N-[3-((R)-1-naphthalen-1-A-ethylcarbamoyl)-phenyl]-benzamide] | 230 nM
7 | C[C@@H](NC(=O)c1cccc(NC(=O)c2ccccc2Cl)c1)c1cccc2ccccc12 [Compound 101, 2-Chloro-N-[3-((R)-1-naphthalen-1-yl-ethylcarbamoyl)-phenyl]-benzamide] | 290 nM
8 | O=C(NCc1cccc2ccccc12)c1cccc(NC(=O)c2ccccc2Br)c1 [Compound 103, 2-Bromo-N-{3-[(naphthalen-1-ylmethyl)-carbamoyl]-phenyl}-benzamide] | 180 nM
9 | O=C(NCc1cccc2ccccc12)c1cccc(NC(=O)c2ccccc2F)c1 [Compound 104, 2-Fluoro-N-{3-[(naphthalen-1-ylmethyl)-carbamoyl]-phenyl}-benzamide] | 1100 nM
10 | O=C(NCc1cccc2ccccc12)c1cccc(NC(=O)c2c(Cl)cccc2Cl)c1 [Compound 105, 2,6-Dichloro-N-{3-[(naphthalen-1-ylmethyl)-carbamoyl]-phenyl}-benzamide] | 520 nM
11 | COc1cccc(OC)c1C(=O)Nc1cccc(C(=O)NCc2cccc3ccccc23)c1 [Compound 108, 2,6-Dimethoxy-N-{3-[(naphthalen-1-ylmethyl)-carbamoyl]-phenyl}-benzamide] | 2200 nM
12 | O=C(NCc1cccc2ccccc12)c1cccc(NC(=O)c2ccccc2C(F)(F)F)c1 [Compound 109, N-{3-[(Naphthalen-1-ylmethyl)-carbamoyl]-phenyl}-2-trifluoromethyl-benzamide] | 130 nM
13 | Cc1ccccc1C(=O)Nc1cccc(C(=O)NCc2cccc3ccccc23)c1 [Compound 110, N-{3-[(Naphthalen-1-ylmethyl)-carbamoyl]-phenyl}-2-methyl-benzamide] | 330 nM
14 | O=C(NCc1cccc2ccccc12)c1cccc(NC(=O)c2ccccc2I)c1 [Compound 112, 2-Iodo-N-{3-[(naphthalen-1-ylmethyl)-carbamoyl]-phenyl}-benzamide] | 220 nM
15 | O=C(NCc1cccc2ccccc12)c1cccc(NC(=O)c2ccccc2-c2cccs2)c1 [Compound 116, N-{3-[(Naphthalen-1-ylmethyl)-carbamoyl]-phenyl}-2-thiopene-2-yl-benzamide] | 2500 nM
16 | O=C(NCc1cccc2ccccc12)c1cccc(NCc2ccccc2Br)c1 [Compound 122, 3-(2-Bromo-benzylamino)-N-naphthalen-1-ylmethyl-benzamide] | 1000 nM
17 | O=C(Nc1cccc(CNCc2ccccc2C(F)(F)F)c1)c1ccccc1C(F)(F)F [Compound 125, 2-Trifluoromethyl-N-{3-[(2-trifluoromethyl-benzylamino)-methyl]-phenyl}-benzamide] | 1800 nM
18 | O=C(NCc1ccccc1C(F)(F)F)c1cccc(NC(=O)c2ccccc2C(F)(F)F)c1 [Compound 134, 3-(2-Trifluoromethyl-benzoylamino)-N-(2-trifluoromethyl-benzyl)-benzamide] | 70 nM

Row | SMILES | IC50
19 | O=C(NCc1ccccc1Br)c1cccc(NC(=O)c2ccccc2C(F)(F)F)c1 [Compound 135, N-(2-Bromo-benzyl)-3-(2-trifluoromethyl-benzoylamino)-benzamide] | 65 nM
20 | O=C(NCc1ccccc1-c1ccccc1)c1cccc(NC(=O)c2ccccc2C(F)(F)F)c1 [Compound 136, N-(2-Phenyl-benzyl)-3-(2-trifluoromethyl-benzoylamino)-benzamide] | 200 nM
21 | O=C(NCc1cccc(-c2ccccc2)c1)c1cccc(NC(=O)c2ccccc2C(F)(F)F)c1 [Compound 137, N-(3-Phenyl-benzyl)-3-(2-trifluoromethyl-benzoylamino)-benzamide] | 320 nM
22 | O=C(NCc1cccc(Br)c1)c1cccc(NC(=O)c2ccccc2C(F)(F)F)c1 [Compound 138, N-(3-Bromo-benzyl)-3-(2-trifluoromethyl-benzoylamino)-benzamide] | 160 nM
23 | Cc1cccc(CNC(=O)c2cccc(NC(=O)c3ccccc3C(F)(F)F)c2)c1C [Compound 139, N-(2,3-Dimethyl-benzyl)-3-(2-trifluoromethyl-benzoylamino)-benzamide] | 75 nM
24 | O=C(Nc1ccc2cccc(O)c2n1)c1cccc(NC(=O)c2ccccc2C(F)(F)F)c1 [Compound 140, N-(8-hydroxy-quinolin-2-yl)-3-(2-trifluoromethyl-benzoylamino)-benzamide] | 1900 nM
25 | O=C(NCc1ccccc1)c1cccc(NC(=O)c2ccccc2C(F)(F)F)c1 [Compound 141, N-(Benzyl)-3-(2-trifluoromethyl-benzoylamino)-benzamide] | 280 nM
26 | Cc1ccccc1CNC(=O)c1cccc(NC(=O)c2ccccc2C(F)(F)F)c1 [Compound 142, N-(2-Methyl-benzyl)-3-(2-trifluoromethyl-benzoylamino)-benzamide] | 1000 nM
27 | O=C(NCc1ccccc1Cl)c1cccc(NC(=O)c2ccccc2C(F)(F)F)c1 [Compound 143, N-(2-Chloro-benzyl)-3-(2-trifluoromethyl-benzoylamino)-benzamide] | 220 nM
28 | COc1ccccc1CNC(=O)c1cccc(NC(=O)c2ccccc2C(F)(F)F)c1 [Compound 144, N-(2-Methoxy-benzyl)-3-(2-trifluoromethyl-benzoylamino)-benzamide] | 840 nM
29 | CN(C)c1ccccc1CNC(=O)c1cccc(NC(=O)c2ccccc2C(F)(F)F)c1 [Compound 145, N-(2-Dimethylamino-benzyl)-3-(2-trifluoromethyl-benzoylamino)-benzamide] | 470 nM
30 | O=C(NCc1ccccc1N1CCCCC1)c1cccc(NC(=O)c2ccccc2C(F)(F)F)c1 [Compound 146, N-(2-piperidin-1-yl-benzyl)-3-(2-trifluoromethyl-benzoylamino)-benzamide] | 170 nM
31 | O=C(NCc1ccccc1OC(F)(F)F)c1cccc(NC(=O)c2ccccc2C(F)(F)F)c1 [Compound 147, N-(2-Trifluoromethoxy-benzyl)-3-(2-trifluoromethyl-benzoylamino)-benzamide] | 110 nM
32 | O=C(NCc1cccc2c1OCCO2)c1cccc(NC(=O)c2ccccc2C(F)(F)F)c1 [Compound 148, N-(2,3-dihydro-benzo[1,4]dioxin-5-ylmethyl)-3-(2-trifluoromethyl-benzoylamino)-benzamide] | 990 nM
33 | O=C(NCc1ccccc1N1CCOCC1)c1cccc(NC(=O)c2ccccc2C(F)(F)F)c1 [Compound 149, N-(2-morpholin-4-yl-benzyl)-3-(2-trifluoromethyl-benzoylamino)-benzamide] | 2000 nM
34 | O=C(Nc1nc2cc(Cl)ccc2o1)c1cccc(NC(=O)c2ccccc2C(F)(F)F)c1 [Compound 164, N-(3-(5-chlorobenzo[d]oxazol-2-ylcarbamoyl)phenyl)-2-(trifluoromethyl)benzamide] | 68 nM
35 | O=C(Nc1ccc(-c2ccccc2)cn1)c1cccc(NCc2ccccc2C(F)(F)F)c1 [Compound 166, 3-[2-(Trifluoromethyl)-benzylamino]-N-(5-phenyl-pyridine-2-yl)-benzamide] | 53 nM

Each compound was assayed on A549 lung carcinoma cells (assay: A549 assay, PGE2 content in supernatant by EIA). Settings: Homo sapiens, A549; TNFalfa and IL-1beta induced 16 h; 30 min compound, then 10 μM arachidonic acid 30 min.
Assay type: cell-based
Description: A549 lung carcinoma cells, seeded at a density of 10,000 cells/well, were grown in 96 well tissue culture plates. TNFalfa (5 ng/ml) and […] (5 ng/ml) were added and the cells were incubated for 16 hours. Cells were washed in PBS and test compounds at the appropriate concentration in HBSS/0.1% BSA were added. After 30 minutes incubation with test compounds, 10 μM arachidonic acid was added and cells were further incubated for 30 minutes. Supernatant was collected and analyzed for PGE2 content by EIA according to manufacturer's instructions.

Row | SMILES | EC50
36 | O=C(NC1CCc2ccccc21)c1cccc(NC(=O)c2ccccc2Cl)c1 (centres unmarked) [Compound 34, 3-(2-Chloro-benzoylamino)-N-indan-1-yl-benzamide] | 5400 nM
37 | C[C@H](NC(=O)c1cccc(NC(=O)c2ccccc2C(F)(F)F)c1)c1cccc2ccccc12 [Compound 77, N-[3-((S)-1-Naphthalen-1-yl-ethylcarbamoyl)-phenyl]-2-trifluoromethyl-benzamide] | 400 nM
38 | C[C@H](NC(=O)c1cccc(NC(=O)c2ccccc2I)c1)c1cccc2ccccc12 [Compound 79, 2-Iodo-N-[3-((S)-1-naphthalen-1-yl-ethylcarbamoyl)-phenyl]-benzamide] | 1230 nM
39 | C[C@@H](NC(=O)c1cccc(NC(=O)c2ccccc2C(F)(F)F)c1)c1cccc2ccccc12 [Compound 93, N-[3-((R)-1-Naphthalen-1-yl-ethylcarbamoyl)-phenyl]-2-trifluoromethyl-benzamide] | 450 nM
40 | O=C(NCc1cccc2ccccc12)c1cccc(NC(=O)c2ccccc2F)c1 [Compound 104, 2-Fluoro-N-{3-[(naphthalen-1-ylmethyl)-carbamoyl]-phenyl}-benzamide] | 640 nM

Same assay, conditions: TNFalfa and IL-1beta induced 16 h; 30 min compound, then 10 μM arachidonic acid 30 min

Row | SMILES | EC50
41 | O=C(Nc1cccc2cccnc12)c1cccc(NC(=O)c2ccccc2Cl)c1 [Compound 8, 3-(2-Chloro-benzoylamino)-N-(quinolin-8-yl-)-benzamide] | 2960 nM

From patent publication US20100324086A1, “COMPOUNDS AND METHODS” (Novasaid AB, priority 2008, published 2010)
